Results from publication PMC8151276, “An Integrated Approach toward NanoBRET Tracers for Analysis of GPCR Ligand Engagement” (Molecules, 2021).

What was measured:
CCR2 = molecular target: T1, CCR2 (Homo sapiens, UniProt P41597); assay: NanoBRET screen HiBiT-CCR2 in HEK293; format: binding
T1 construct: purchased Promega (in-house HiBiT-GPCR construct library, NanoBRET)
Method: (§1) Each tracer candidate was screened across the entire library of HiBiT-GPCR constructs using NanoBRET as the detection modality. As depicted in Figure 4A, the specificity of interactions was evaluated through decrease in BRET due to competitive displacement of a bound tracer by excess parental compound. Each tracer was analyzed for binding to each HiBiT-GPCR fusion in the absence and in the presence of competing parental compound. Briefly, HEK293 cells were transfected with HiBiT-GPCR constructs diluted into promoterless DNA to reduce expression and maximize translocation to the cell surface. Each tracer candidate was then screened at concentrations of 1 μM and 0.1 μM across cells expressing these fusions. Cells were treated for 1.5 h with tracer either alone or in the presence of 20 μM competing parental compound (i.e., control). BRET was measured upon addition of purified LgBiT and subsequent complementation with HiBiT genetically fused to a GPCR. The specificity of interactions was assessed through a decrease in BRET signal due to competitive displacement of the bound tracer. To further gauge the robustness of these interactions, the fold response over the control (i.e., BRETtracer/BRETcontrol) was calculated. We chose a 1.5-fold response, which translates to ≥7-fold signal over noise as the minimal threshold required to score an interaction as positive. […]. Below we highlight the screening results obtained for our exemplary fluorescent tracers based on Clozapine, Amitriptyline and AZD1283.
(§2) HiBiT-GPCR DNA constructs were diluted in 10 mM Tris pH 8 to a final concentration of 0.01 μg/μL, arrayed in 96-well plates and stored at −20 °C. For transfection, HEK293 cells were suspended in Opti-MEM (without phenol red) supplemented with 2% fetal bovine serum (Seradigm) and 100 units/mL penicillin–streptomycin (Gibco) at a final concentration of 220,000 cells/mL and dispensed into white 96-well plates at 90 μL/well. Subsequent transfections and screens were carried using an Agilent Bravo Automated Liquid Handling Platform. First, the 96-well HiBiT DNA arrays were diluted 25-fold in Opti-MEM (without serum or phenol red) to a final concentration of 0.0004 μg/μL and 20 μL of the diluted DNAs were transferred into new 96-well plates. Next, promoterless carrier DNA (1 μg/μL) was diluted 25-fold (0.04 μg/μL) and then dispensed into the diluted arrays at 20 μL/well. Following brief mixing, Viafect transfection reagent (Promega) diluted 16-fold into Opti-MEM was dispensed into the plates at 40 μL/well. After mixing by pipetting, plates were incubated for 10 min on the pipetting station deck. The DNA-transfection reagent complexes were then added to plates containing cells. To facilitate the screen, 10 μL of DNA-transfection reagent complexes were added in duplicates to the top 4 and bottom 4 rows, resulting in two identical 48-well arrays per plate. Plates with transfected cells were incubated for 18–20 h at 37 °C/5% CO2. A screen of each tracer across the entire library using two different concentrations requires duplicate plates of transfected cells. Depending on the number of tracers being screened, transfections can be scaled up using the same ratios. The next day, for each tracer, four 20× screening solutions in tracer dilution buffer (Promega) were prepared: two duplicates at final concentration of 20 μM and two duplicates at a final concentration of 2 μM. A competing unmodified compound was added to one of each duplicate at a final concentration of 400 μM. The four resulting solutions were diluted 4-fold in Opti-MEM without serum or phenol red to generate 5× solutions (5 µM and 0.5 µM tracer +/− 100 μM competing compound). To screen the library, a BioTek MultiFlo FX liquid dispenser was used to dispense 22.5 µL of tracer solution to the top 4 rows and 22.5 µL tracer + competing compound solution to the 4 bottom rows. Plates were briefly mixed on an orbital shaker and incubated for 1.5 h at room temperature. […]

OXTR = molecular target: T2, OXTR (Homo sapiens, UniProt P30559); assay: NanoBRET screen HiBiT-OXTR in HEK293; format: binding
T2 construct: purchased Promega (in-house HiBiT-GPCR construct library, NanoBRET)
T2 sequence (P30559 1-389): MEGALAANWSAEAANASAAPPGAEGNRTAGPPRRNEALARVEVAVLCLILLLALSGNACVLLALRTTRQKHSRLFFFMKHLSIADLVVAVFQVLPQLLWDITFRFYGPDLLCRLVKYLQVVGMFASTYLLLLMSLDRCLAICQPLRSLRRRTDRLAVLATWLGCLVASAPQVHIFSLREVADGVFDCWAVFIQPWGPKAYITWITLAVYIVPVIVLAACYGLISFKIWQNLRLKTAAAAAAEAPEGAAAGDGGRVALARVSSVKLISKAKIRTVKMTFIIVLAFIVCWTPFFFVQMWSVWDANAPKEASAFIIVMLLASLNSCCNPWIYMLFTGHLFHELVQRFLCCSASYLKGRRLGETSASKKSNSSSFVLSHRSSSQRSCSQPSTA
Method: as §1, §2

T1 sequence (P41597 whole entry): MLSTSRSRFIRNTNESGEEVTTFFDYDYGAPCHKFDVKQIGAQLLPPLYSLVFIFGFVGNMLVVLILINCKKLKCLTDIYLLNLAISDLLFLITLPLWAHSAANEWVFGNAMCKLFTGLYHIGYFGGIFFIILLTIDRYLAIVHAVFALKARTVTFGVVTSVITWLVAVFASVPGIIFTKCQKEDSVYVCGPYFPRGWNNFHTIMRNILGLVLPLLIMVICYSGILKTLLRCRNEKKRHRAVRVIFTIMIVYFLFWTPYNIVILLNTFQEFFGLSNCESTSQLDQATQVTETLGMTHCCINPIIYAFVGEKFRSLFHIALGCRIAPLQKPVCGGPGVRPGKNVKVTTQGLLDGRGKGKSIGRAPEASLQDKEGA

| SMILES | NanoBRET Fold Response (CCR2; CCR2, tracer 0.1μM) | NanoBRET Fold Response (CCR2; CCR2, tracer 1μM) | NanoBRET Fold Response (OXTR; OXTR, tracer 0.1μM) | NanoBRET Fold Response (OXTR; OXTR, tracer 1μM) | other results |
| --- | --- | --- | --- | --- | --- |
| O=C(CCOCCOCCOCCOCCNC(=O)CCc1ccc2n1[B-](F)(F)[N+]1=C(c3ccc[nH]3)C=CC1=C2)NCCCN1CCN(C2=Nc3ccccc3Oc3ccc(Cl)cc32)CC1 [Loxapine-a-2-NB590] | 0.97 | 0.81 | 0.97 | 1.02 |  |
| CCCn1c(=O)c2[nH]c(-c3ccc(OCC(=O)NCCNC(=O)CCOCCNC(=O)c4ccc(CNC(=O)CCc5ccc6n5[B-](F)(F)[N+]5=C(c7ccc[nH]7)C=CC5=C6)cc4)cc3)nc2n(CCC)c1=O [XAC-3-NB590] | 1.08 | 1.61 | 1.04 | 0.98 |  |
| CN(C)CCC=C1c2ccccc2CCc2ccc(C(=O)NCCNC(=O)CCOCCOCCOCCOCCNC(=O)CCc3ccc4n3[B-](F)(F)[N+]3=C(c5ccc[nH]5)C=CC3=C4)cc21 [Amitriptyline-a-2-NB590] |  |  |  |  | NanoBRET Fold Response (CCR2; tracer at 0.1μM): 1.19; NanoBRET Fold Response (CCR2; tracer at 1μM): 1.05; NanoBRET Fold Response (OXTR; tracer at 0.1μM): 0.99; NanoBRET Fold Response (OXTR; tracer at 1μM): 1.09 |
| COc1ccccc1N1CCN(CCCCN2C(=O)c3ccc(CNC(=O)CCOCCOCCOCCOCCNC(=O)CCc4ccc5n4[B-](F)(F)[N+]4=C(c6ccc[nH]6)C=CC4=C5)cc3C2=O)CC1 [NAN-190-2-NB590] | 1.04 | 1.00 | 0.96 |  |  |
| O=C(CCc1ccc2n1[B-](F)(F)[N+]1=C(c3ccc[nH]3)C=CC1=C2)NCc1ccc(C(=O)NCCOCCOCCNCC(O)COc2cccc3ccccc23)cc1 (stereo not shown) [Propranolol-3-NB590] |  |  |  |  | NanoBRET Fold Response (CCR2; CCR2, 0.1μM): 0.99; NanoBRET Fold Response (CCR2; CCR2, 1μM): 1.19; NanoBRET Fold Response (OXTR; OXTR, 0.1μM): 1.04; NanoBRET Fold Response (OXTR; OXTR, 1μM): 0.98 |
| COc1ccccc1N1CCN(CCCCN2C(=O)c3ccc(CNC(=O)CCOCCNC(=O)c4ccc(CNC(=O)CCc5ccc6n5[B-](F)(F)[N+]5=C(c7ccc[nH]7)C=CC5=C6)cc4)cc3C2=O)CC1 [NAN-190-3-NB590] | 0.82 | 0.94 | 1.10 | 1.05 |  |
| O=C(CCc1ccc2n1[B-](F)(F)[N+]1=C(c3ccc[nH]3)C=CC1=C2)NCc1ccc(C(=O)NCCOCCC(=O)N[C@@H]2CC[C@@]3(O)[C@H]4Cc5ccc(O)c6c5[C@@]3(CCN4CC3CC3)[C@H]2O6)cc1 [Naltrexone-3-NB590] | 1.12 | 0.70 | 0.99 | 0.91 |  |
| CCOC(=O)c1cc(C#N)c(N2CCC(C(=O)NS(=O)(=O)Cc3ccccc3/C=C/C(=O)NCCNC(=O)CCc3ccc4n3[B-](F)(F)[N+]3=C(c5ccc[nH]5)C=CC3=C4)CC2)nc1C [AZD1283-1-NB590] |  |  |  |  | NanoBRET Fold Response (CCR2; CCR2, 0.1μM): 0.93; NanoBRET Fold Response (CCR2; CCR2, 1μM): 1.04; NanoBRET Fold Response (OXTR; OXTR, 0.1μM): 1.07; NanoBRET Fold Response (OXTR; OXTR, 1μM): 1.07 |
| COc1ccc2[nH]c(-c3ccc(CNC(=O)CCOCCOCCOCCOCCNC(=O)CCc4ccc5n4[B-](F)(F)[N+]4=C(c6ccc[nH]6)C=CC4=C5)cc3)c(CCNC(C)=O)c2n1 [AzomelatoninICO9-2-NB590] |  |  |  |  | NanoBRET Fold Response (CCR2; 0.1μM tracer): 1.23; NanoBRET Fold Response (CCR2; 1μM tracer): 1.22; NanoBRET Fold Response (OXTR; 0.1μM tracer): 0.99; NanoBRET Fold Response (OXTR; 1μM tracer): 0.87 |
| CC(C)N(CC[C@H](c1ccccc1)c1cc(CCNC(=O)CCOCCOCCOCCOCCNC(=O)CCc2ccc3n2[B-](F)(F)[N+]2=C(c4ccc[nH]4)C=CC2=C3)ccc1O)C(C)C [Tolterodine-2-NB590] | 1.20 | 0.98 | 0.97 | 0.94 |  |
| CN1CCN(C2=Nc3cc(Cl)ccc3N(CC(=O)NCCOCCOCCOCCOCCNC(=O)CCc3ccc4n3[B-](F)(F)[N+]3=C(c5ccc[nH]5)C=CC3=C4)c3ccccc32)CC1 [Clozapine-c-2-NB590] |  |  |  |  | NanoBRET Fold Response (CCR2; CCR2, 0.1μM tracer): 0.94; NanoBRET Fold Response (CCR2; CCR2, 1μM tracer): 0.75; NanoBRET Fold Response (OXTR; OXTR, 0.1μM tracer): 0.97; NanoBRET Fold Response (OXTR; OXTR, 1μM tracer): 0.96 |
| N#CN=C(NCCCOc1cccc(CN2CCCCC2)c1)NCCNC(=O)CCOCCOCCOCCOCCNC(=O)CCc1ccc2n1[B-](F)(F)[N+]1=C(c3ccc[nH]3)C=CC1=C2 [Aminopotentidine-2-NB590] | 0.93 | 0.98 | 1.06 | 1.04 |  |
| COc1ccc2c(n1)c(CCNC(C)=O)cn2CCNC(=O)CCc1ccc2n1[B-](F)(F)[N+]1=C(c3ccc[nH]3)C=CC1=C2 [Azamelatonin-1-NB590] |  |  |  |  | NanoBRET Fold Response (CCR2; 0.1μM tracer): 1.06; NanoBRET Fold Response (CCR2; 1μM tracer): 0.97; NanoBRET Fold Response (OXTR; 0.1μM tracer): 1.11; NanoBRET Fold Response (OXTR; 1μM tracer): 0.94 |
| CN(CCC=C1c2ccccc2CCc2ccccc21)C(=O)CCOCCOCCOCCOCCNC(=O)CCc1ccc2n1[B-](F)(F)[N+]1=C(c3ccc[nH]3)C=CC1=C2 [Amitriptyline-e-2-NB590] |  |  |  |  | NanoBRET Fold Response (CCR2; tracer at 1μM): 0.90 |
| CC(C)N(CC[C@H](c1ccccc1)c1cc(CCNC(=O)c2ccc(CNC(=O)CCc3ccc4n3[B-](F)(F)[N+]3=C(c5ccc[nH]5)C=CC3=C4)cc2)ccc1O)C(C)C [Tolterodine-BZ-NB590] | 0.99 | 0.89 | 1.02 | 1.01 |  |
| O=C(CCc1ccc2n1[B-](F)(F)[N+]1=C(c3ccc[nH]3)C=CC1=C2)NCCOCCOCCNC(=O)OCCOCCN1CCN(C2=Nc3ccccc3Sc3ccccc32)CC1 [Quetiapine-a-2-NB590] | 1.00 | 0.88 | 1.10 | 0.82 |  |
| Cc1cc2c(s1)Nc1ccccc1N=C2N1CCN(CCCNC(=O)CCOCCOCCOCCOCCNC(=O)CCc2ccc3n2[B-](F)(F)[N+]2=C(c4ccc[nH]4)C=CC2=C3)CC1 [Olanzapine-a-2-NB590] | 1.00 | 0.59 | 1.00 | 0.96 |  |
